Test results: article PMC9781101, “A High-Throughput Fluorescence Polarization-Based Assay for the SH2 Domain of STAT4” (Methods and Protocols, 2022)
Like-named read-outs stand apart in the source and are kept apart here. Non-standard residues stand in square brackets, D forms with d. Residues, ends and D or L forms follow the SMILES beside them. No end group written: not given here. *: point of attachment. 5FAM = O=C1OC2(c3ccc(O)cc3Oc3cc(O)ccc32)c2ccc(C(=O)*)cc21; pY = N[C@@H](Cc1ccc(OP(=O)(O)O)cc1)C(=O)O

Assays:
[1] = target: T1, STAT4 SH2 domain (human STAT4 amino acids 136 to 705) (Homo sapiens, UniProt Q14765); assay: Fluorescence polarization direct binding assay, labelled phosphopeptides to truncated STAT4; conditions: for fold lower affinity for STAT4 than 5-CF-GpYLPQNID: ratio of Kd values
T1 sequence (Q14765 136-705): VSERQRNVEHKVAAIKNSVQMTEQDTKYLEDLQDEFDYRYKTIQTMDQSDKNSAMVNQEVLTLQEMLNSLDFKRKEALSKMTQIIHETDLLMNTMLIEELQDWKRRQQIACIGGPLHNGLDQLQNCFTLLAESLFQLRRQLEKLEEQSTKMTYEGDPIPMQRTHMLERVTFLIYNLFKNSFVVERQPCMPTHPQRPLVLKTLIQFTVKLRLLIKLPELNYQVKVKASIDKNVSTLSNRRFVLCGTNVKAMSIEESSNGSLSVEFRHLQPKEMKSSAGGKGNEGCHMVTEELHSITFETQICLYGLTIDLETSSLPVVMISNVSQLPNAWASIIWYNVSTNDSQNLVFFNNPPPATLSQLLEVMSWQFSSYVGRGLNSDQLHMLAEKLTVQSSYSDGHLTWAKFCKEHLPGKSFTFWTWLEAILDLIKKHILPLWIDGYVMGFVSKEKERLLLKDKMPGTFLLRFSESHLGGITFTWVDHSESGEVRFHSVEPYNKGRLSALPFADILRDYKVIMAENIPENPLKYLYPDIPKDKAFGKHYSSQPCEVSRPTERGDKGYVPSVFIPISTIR
Protocol: (§1) Binding of fluorescent-labelled peptides to the truncated STAT4 protein was analysed using an Infinite F500 plate reader (Tecan) as previously published for STAT5b [12]. Unless otherwise stated, FP assays were performed in a buffer consisting of 10 mM Tris/HCl, 50 mM NaCl, 1 mM EDTA, 0.1% (v/v) NP-40 substitute, 2% (v/v) DMSO and 1 mM DTT at a pH of 8.0. All steps were carried out at room temperature. For the binding assays shown in Figure 1, Figure 2 and Figure 3, the prediluted STAT4 protein was incubated for 1 h before addition of the fluorophore-labelled peptide, to mimic the incubation period with test compounds. For the inhibition assay shown in Figure 4, STAT4 was incubated with unlabelled peptide for 1 h before addition of the fluorophore-labelled peptide (final STAT4 concentration: 33 nM). Fluorescence polarization was read 1 h after addition of the labelled peptide, in non-treated black 384-well microplates (Corning). Fluorescent-labelled peptides were used at a final concentration of 10 nM unless otherwise stated. Binding and inhibition curves were plotted using OriginPro 2019 software (OriginLab). Fluorescence polarization values were normalized by subtracting the FP values of the wells containing the fluorophore-labelled peptides only. […] IC50 values from three independent experiments were used to calculate an average value and the corresponding standard deviation. IC50 values were converted to inhibition constants (Ki) using the published equation [20], with average values calculated as for IC50 values.

STAT4 R598A = conditions: FP, Figure 1b, compared with STAT4 wild-type
Protocol: Binding of fluorescent-labelled peptides to the truncated STAT4 protein was analysed using an Infinite F500 plate reader (Tecan) as previously published for STAT5b [12]. Unless otherwise stated, FP assays were performed in a buffer consisting of 10 mM Tris/HCl, 50 mM NaCl, 1 mM EDTA, 0.1% (v/v) NP-40 substitute, 2% (v/v) DMSO and 1 mM DTT at a pH of 8.0. All steps were carried out at room temperature. For the binding assays shown in Figure 1, Figure 2 and Figure 3, the prediluted STAT4 protein was incubated for 1 h before addition of the fluorophore-labelled peptide, to mimic the incubation period with test compounds. For the inhibition assay shown in Figure 4, STAT4 was incubated with unlabelled peptide for 1 h before addition of the fluorophore-labelled peptide (final STAT4 concentration: 33 nM). Fluorescence polarization was read 1 h after addition of the labelled peptide, in non-treated black 384-well microplates (Corning). Fluorescent-labelled peptides were used at a final concentration of 10 nM unless otherwise stated. […] Fluorescence polarization values were normalized by subtracting the FP values of the wells containing the fluorophore-labelled peptides only. […] IC50 values were converted to inhibition constants (Ki) using the published equation [20], with average values calculated as for IC50 values.

[2] = target: STAT3 (amino acids 127 to 722) (Mus musculus, UniProt P42227); assay: Fluorescence polarization direct binding assay, STAT3; parameters: species or system murine
Sequence of STAT3 (amino acids 127 to 722) (P42227 127-722): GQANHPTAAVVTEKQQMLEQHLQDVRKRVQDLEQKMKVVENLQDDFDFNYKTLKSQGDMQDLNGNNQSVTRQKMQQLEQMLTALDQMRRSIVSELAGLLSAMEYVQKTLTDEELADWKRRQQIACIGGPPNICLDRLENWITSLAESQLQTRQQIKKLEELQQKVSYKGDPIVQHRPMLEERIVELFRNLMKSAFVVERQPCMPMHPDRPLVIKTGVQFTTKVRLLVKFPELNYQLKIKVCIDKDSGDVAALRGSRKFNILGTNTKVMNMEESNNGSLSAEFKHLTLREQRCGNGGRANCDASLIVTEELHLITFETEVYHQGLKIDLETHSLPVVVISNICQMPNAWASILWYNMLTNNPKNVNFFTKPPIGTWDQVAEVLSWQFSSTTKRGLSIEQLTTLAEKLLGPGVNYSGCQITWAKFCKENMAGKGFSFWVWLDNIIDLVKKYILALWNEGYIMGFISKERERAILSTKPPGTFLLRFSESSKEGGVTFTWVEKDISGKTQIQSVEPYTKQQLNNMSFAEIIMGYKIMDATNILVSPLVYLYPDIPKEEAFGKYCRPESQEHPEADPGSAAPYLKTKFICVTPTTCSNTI

[3] = target: T2, STAT6 (amino acids 110 to 651) (Homo sapiens, UniProt P42226); assay: Fluorescence polarization direct binding assay, STAT6; conditions: FP, 10 nM labelled peptide; Figure S1
T2 sequence (P42226 110-651): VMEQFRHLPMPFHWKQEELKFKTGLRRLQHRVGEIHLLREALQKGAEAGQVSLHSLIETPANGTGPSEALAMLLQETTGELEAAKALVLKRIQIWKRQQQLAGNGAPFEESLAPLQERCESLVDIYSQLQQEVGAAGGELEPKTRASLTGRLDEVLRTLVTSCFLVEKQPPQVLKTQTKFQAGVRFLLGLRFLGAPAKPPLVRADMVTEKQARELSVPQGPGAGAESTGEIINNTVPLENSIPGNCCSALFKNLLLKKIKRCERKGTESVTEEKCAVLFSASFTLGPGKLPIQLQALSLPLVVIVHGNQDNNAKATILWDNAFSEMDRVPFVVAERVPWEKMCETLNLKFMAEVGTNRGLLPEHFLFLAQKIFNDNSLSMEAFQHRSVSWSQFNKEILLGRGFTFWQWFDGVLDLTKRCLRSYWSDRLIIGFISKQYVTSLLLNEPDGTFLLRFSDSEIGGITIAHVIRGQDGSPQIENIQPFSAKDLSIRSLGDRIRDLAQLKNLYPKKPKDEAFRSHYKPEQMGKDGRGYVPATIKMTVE

[4] = target: T1, STAT4 SH2 domain (human STAT4 amino acids 136 to 705); assay: Fluorescence polarization competitive inhibition of binding between 5-CF-GpYLPQNID and STAT4; conditions: for IC50: SD; for inhibition: 33 nM STAT4, 10 nM probe
Protocol: as §1

STAT4 = conditions: cited from earlier work; for IC50: read-out: IC50 against STAT4 in an ELISA
EPO receptor peptide = EPO receptor peptide (Homo sapiens, UniProt P19235, phosphotyrosine, 5-carboxyfluorescein); assay: fluorescence polarization
gp130 peptide = gp130 peptide (Homo sapiens, UniProt P40189, phosphotyrosine, 5-carboxyfluorescein); assay: fluorescence polarization
IFN-γ receptor peptide = target: T3, IFN-γ receptor peptide (Homo sapiens, UniProt P15260, also: 5-carboxyfluorescein, site not given here); assay: fluorescence polarization
T3 chain: G[pY]DKPHVL

For 5-CF-GPMQSpTPLNG, the “binding to STAT4 (in words)” value ([1]; FP, 10 nM labelled peptide) was “did not bind”.

For `CC(C)C[C@H](NC(=O)[C@@H](NC(=O)[C@H](Cc1c[nH]cn1)NC(=O)[C@@H]1CCCN1C(=O)[C@H](CCCCN)NC(=O)[C@H](CC(=O)O)NC(=O)[C@H](Cc1ccc(OP(=O)(O)O)cc1)NC(=O)CNC(=O)c1ccc2c(c1)C(=O)OC21c2ccc(O)cc2Oc2cc(O)ccc21)C(C)C)C(=O)O` [5-CF-GpYDKPHVL] (5FAM-G[pY]DKPHVL-OH), the Kd ([1]; SD) was 1230 ± 284 nM.

For `CC[C@H](C)[C@H](NC(=O)[C@H](CCC(=O)O)NC(=O)[C@H](CCC(=O)O)NC(=O)[C@H](Cc1ccc(OP(=O)(O)O)cc1)NC(=O)CNC(=O)c1ccc2c(c1)C(=O)OC21c2ccc(O)cc2Oc2cc(O)ccc21)C(=O)N1CCC[C@H]1C(=O)O` [5-CF-GpYEEIP] (5FAM-G[pY]EEIP-OH), the Kd [1] was greater than 2560 nM.

With `CC[C@H](C)[C@H](NC(=O)[C@H](CC(N)=O)NC(=O)[C@H](CCC(N)=O)NC(=O)[C@@H]1CCCN1C(=O)[C@H](CC(C)C)NC(=O)[C@H](Cc1ccc(OP(=O)(O)O)cc1)NC(=O)CNC(=O)c1ccc2c(c1)C(=O)OC21c2ccc(O)cc2Oc2cc(O)ccc21)C(=O)N[C@@H](CC(=O)O)C(=O)O` [5-CF-GpYLPQNID] (5FAM-G[pY]LPQNID-OH) the “binding to STAT4 R598A (in words)” value (STAT4 R598A) was “almost completely abolished”, the Kd ([2]; FP, 10 nM labelled peptide, Figure S1, mean ± SD of 3 independent experiments, SD) was 131 ± 6 nM and the “weaker affinity for STAT3 than for STAT4” value ([2]; ratio of Kd values STAT3 vs STAT4) was “fourfold”. The “reduction in affinity for STAT4 by 8 h” value ([1]; 8 h after addition of labelled probe) was “no more than 35%”, the Kd ([1]; SD) was 34 ± 4 nM and the Kd [3] was greater than 2560 nM.

With `CC(C)C[C@H](NC(=O)[C@H](Cc1ccc(OP(=O)(O)O)cc1)NC(=O)CNC(=O)c1ccc2c(c1)C(=O)OC21c2ccc(O)cc2Oc2cc(O)ccc21)C(=O)N1CCC[C@H]1C(=O)N[C@@H](CCC(N)=O)C(=O)N[C@H](C(=O)N[C@H](C(N)=O)C(C)C)[C@@H](C)O` [5-CF-GpYLPQTV-NH2] (5FAM-G[pY]LPQTV-NH2) the Kd ([1]; SD) was 82 ± 2 nM and the “fold lower affinity for STAT4 than 5-CF-GpYLPQNID” value (“fold lower affinity” for short) ([1]; 10 nM labelled peptide) was 2.4 fold.

For `CC[C@H](C)[C@H](NC(=O)[C@H](CC(N)=O)NC(=O)[C@H](CO)NC(=O)[C@@H]1CCCN1C(=O)[C@H](CC(C)C)NC(=O)[C@H](Cc1ccc(OP(=O)(O)O)cc1)NC(=O)CNC(=O)c1ccc2c(c1)C(=O)OC21c2ccc(O)cc2Oc2cc(O)ccc21)C(=O)N[C@@H](CC(=O)O)C(=O)O` [5-CF-GpYLPSNID] (5FAM-G[pY]LPSNID-OH), the Kd ([1]; SD) was 160 ± 6 nM.

With `CC(C)C[C@H](NC(=O)[C@H](Cc1ccc(OP(=O)(O)O)cc1)NC(=O)CNC(=O)c1ccc2c(c1)C(=O)OC21c2ccc(O)cc2Oc2cc(O)ccc21)C(=O)N[C@H](C(=O)N[C@@H](CC(C)C)C(=O)N[C@@H](CC(=O)O)C(=O)N[C@@H](CCCCN)C(=O)N[C@@H](Cc1c[nH]c2ccccc12)C(=O)O)C(C)C` [5-CF-GpYLVLDKW] the Kd ([1]; SD) was 267 ± 6 nM and the “fold lower affinity” value ([1]; 10 nM labelled peptide) was “approximately 8 fold”.

With `CC[C@H](C)[C@H](NC(=O)[C@H](CC(C)C)NC(=O)[C@H](CC(=O)O)NC(=O)[C@H](CCC(N)=O)NC(=O)[C@H](Cc1c[nH]c2ccccc12)NC(=O)[C@@H]1CCCN1C(=O)[C@@H](NC(=O)[C@H](Cc1ccc(OP(=O)(O)O)cc1)NC(=O)CNC(=O)c1ccc2c(c1)C(=O)OC21c2ccc(O)cc2Oc2cc(O)ccc21)C(C)C)C(=O)O` [5-CF-GpYVPWQDLI] (5FAM-G[pY]VPWQDLI-OH) the Kd ([1]; SD) was 93 ± 8 nM and the “fold lower affinity” value ([1]; 10 nM labelled peptide) was 3 fold.

With `CC[C@H](C)[C@H](NC(=O)[C@H](CC(N)=O)NC(=O)[C@H](CCC(N)=O)NC(=O)[C@@H]1CCCN1C(=O)[C@H](CC(C)C)NC(=O)[C@H](Cc1ccc(OP(=O)(O)O)cc1)NC(=O)CNC(C)=O)C(=O)N[C@@H](CC(=O)O)C(=O)O` [Ac-GpYLPQNID] (Ac-G[pY]LPQNID-OH) the IC50 [4] was 490 ± 40 nM, the “extrapolated maximum inhibition at infinite peptide concentrations” value ([4]; extrapolated from inhibition curve) was 98.4 ± 0.9% and the inhibition at 40 µM ([4]; read-out: Inhibition at 40 µM) was 96%.

For `CC(=O)N[C@@H](Cc1ccc(OP(=O)(O)O)cc1)C(=O)N[C@@H](CC(C)C)C(=O)N1CCC[C@H]1C(=O)N[C@@H](CCC(N)=O)C(=O)N[C@H](C(=O)N[C@H](C(N)=O)C(C)C)[C@@H](C)O` [Ac-pYLPQTV-NH2], the IC50 [4] was 1270 ± 100 nM and the “fold less active than Ac-GpYLPQNID” value ([4]; ratio of IC50 values) was 2.6 fold.

With `CC(C)C[C@H](NC(=O)[C@H](Cc1c[nH]c2ccccc12)NC(=O)[C@H](CCCCN)NC(=O)[C@H](CC(=O)O)NC(=O)[C@H](CC(C)C)NC(=O)[C@@H](NC(=O)[C@H](CC(C)C)NC(=O)[C@H](Cc1ccc(OP(=O)(O)O)cc1)NC(=O)[C@@H](NC(=O)[C@@H](N)CC(=O)O)[C@@H](C)O)C(C)C)C(=O)O` [DTpYLVLDKWL] (H-DT[pY]LVLDKWL-OH) the IC50 [4] was 4170 ± 130 nM.

With `CC(C)C[C@H](NC(=O)[C@@H](NC(=O)[C@H](Cc1c[nH]cn1)NC(=O)[C@@H]1CCCN1C(=O)[C@H](CCCCN)NC(=O)[C@H](CC(=O)O)NC(=O)[C@H](Cc1ccc(OP(=O)(O)O)cc1)NC(=O)CN)C(C)C)C(=O)O` [GpYDKPHVL] (H-G[pY]DKPHVL-OH) the IC50 [4] was 31400 ± 6700 nM.

Work on GpYEEIP yielded an inhibition ([4]; read-out: Inhibition at 40 µM, 40 µM unlabelled peptide (highest concentration tested)) of 37 ± 4%.

With MAGPMQSpTPLNGAKK the inhibition ([4]; read-out: Inhibition at 40 µM, 40 µM unlabelled peptide, n = 2) was 2 ± 2% and the “inhibitory effect on STAT4 (in words)” value ([4]; up to 40 µM) was “no detectable inhibitory effect”.

In the case of SHEGpYLPQNID, the IC50 (STAT4) is listed as 390 nM.

In the case of SHEGpYLPWNID, the “fold less potent against STAT4 than SHEGpYLPQNID in an ELISA” value (STAT4) is given as 2-3 fold and the IC50 (STAT4) is given as 930 nM.

B1: STAT4 SH2 (protein)
chain: LPLWIDGYVMGFVSKEKERLLLKDKMPGTFLLRFSESHLGGITFTWVDHSESGEVRFHSVEPYNKGRLSALPFADILRDYKVIMAENIPENPLKYLYPDIPK
B1 showed a Kd (EPO receptor peptide) of 267 nM, a Kd (gp130 peptide) of 82 nM and a Kd (IFN-γ receptor peptide) of 1230 nM.
